Laboratory results: patent US9200017B2, “Multimodal imaging of fibrin” (The General Hospital Corporation, priority 2009, dated 2015)
Positions of bridges follow the written chain, without caps; N, C: chain ends. Non-standard residues stand in square brackets, D forms with d. Residues, ends and D or L forms follow the SMILES beside them. *: point of attachment. DOTA(p-xylylenediamine) = O=C(O)CN1CCN(CC(=O)O)CCN(CC(=O)NCc2ccc(CN*)cc2)CCN(CC(=O)O)CC1; X1 = O=C1OC2(c3ccc(O)cc3Oc3cc(O)ccc32)c2ccc(NC(=S)NCc3ccc(CN*)cc3)cc21; FITC = O=C1OC2(c3ccc(O)cc3Oc3cc(O)ccc32)c2ccc(NC(=S)*)cc21; DOTA = O=C(O)CN1CCN(CC(=O)O)CCN(CC(=O)*)CCN(CC(=O)O)CC1; Tyr(3-Cl) = N[C@@H](Cc1ccc(O)c(Cl)c1)C(=O)O; Hyp = O=C(O)[C@@H]1C[C@@H](O)CN1; Ahx = NCCCCCC(=O)O

Legend:
[1] = target: T1, fibrin gel (Homo sapiens, UniProt P02671+P02675+P02679); experiment: Phantom study with PET in fibrinogen solution and fibrin gel; settings: 2 mg/mL fibrin gel, 150 nCi, 2.3 nmol, 21° C.
T1 construct: thrombin cleaves fibrinopeptides on fibrinogen resulting in an end-to-end polymerization to give the polymer fibrin; Fibrin is a fibrillar protein derived from the soluble plasma protein fibrinogen
T1 sequence (P02671 36-629 limits assumed): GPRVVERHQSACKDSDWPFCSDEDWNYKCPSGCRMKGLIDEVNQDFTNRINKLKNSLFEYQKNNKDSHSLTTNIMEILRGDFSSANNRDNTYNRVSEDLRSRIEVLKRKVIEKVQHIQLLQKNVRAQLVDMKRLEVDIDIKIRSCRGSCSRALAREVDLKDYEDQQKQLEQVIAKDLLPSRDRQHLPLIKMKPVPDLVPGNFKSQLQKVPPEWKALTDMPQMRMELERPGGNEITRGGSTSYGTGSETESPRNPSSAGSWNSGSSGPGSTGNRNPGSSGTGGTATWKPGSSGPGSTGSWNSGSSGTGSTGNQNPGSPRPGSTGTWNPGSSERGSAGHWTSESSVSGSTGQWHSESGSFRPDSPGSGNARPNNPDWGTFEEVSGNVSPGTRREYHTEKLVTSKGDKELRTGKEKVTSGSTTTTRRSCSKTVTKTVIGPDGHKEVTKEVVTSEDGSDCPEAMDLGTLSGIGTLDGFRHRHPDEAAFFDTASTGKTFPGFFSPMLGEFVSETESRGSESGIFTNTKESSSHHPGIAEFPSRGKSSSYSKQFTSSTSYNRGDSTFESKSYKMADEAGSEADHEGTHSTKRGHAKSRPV
T1 sequence (P02675 45-491 limits assumed): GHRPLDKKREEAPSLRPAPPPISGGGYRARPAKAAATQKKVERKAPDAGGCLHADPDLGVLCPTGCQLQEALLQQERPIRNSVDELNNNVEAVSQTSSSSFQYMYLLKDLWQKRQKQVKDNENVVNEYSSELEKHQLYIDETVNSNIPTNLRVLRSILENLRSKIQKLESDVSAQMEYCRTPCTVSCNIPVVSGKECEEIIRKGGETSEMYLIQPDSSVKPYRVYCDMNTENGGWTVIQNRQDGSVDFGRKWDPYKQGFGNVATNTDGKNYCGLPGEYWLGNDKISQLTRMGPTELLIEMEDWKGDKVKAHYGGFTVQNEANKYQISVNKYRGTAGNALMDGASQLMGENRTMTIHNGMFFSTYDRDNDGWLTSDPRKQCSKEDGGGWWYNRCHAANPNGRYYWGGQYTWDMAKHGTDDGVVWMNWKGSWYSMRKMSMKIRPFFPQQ
T1 sequence (P02679 27-437 isoform P02679-2 limits assumed): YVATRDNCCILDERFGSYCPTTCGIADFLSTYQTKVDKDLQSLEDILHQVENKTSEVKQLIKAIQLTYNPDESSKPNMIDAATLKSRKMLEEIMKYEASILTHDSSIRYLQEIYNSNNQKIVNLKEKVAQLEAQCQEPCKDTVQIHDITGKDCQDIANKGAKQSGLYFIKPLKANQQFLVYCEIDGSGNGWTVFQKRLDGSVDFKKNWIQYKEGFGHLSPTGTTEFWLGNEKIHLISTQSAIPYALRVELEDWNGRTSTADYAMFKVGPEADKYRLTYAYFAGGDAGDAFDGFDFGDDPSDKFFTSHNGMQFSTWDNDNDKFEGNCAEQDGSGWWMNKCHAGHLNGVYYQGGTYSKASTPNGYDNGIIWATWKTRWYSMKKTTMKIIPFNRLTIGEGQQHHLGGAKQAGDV
Procedure: ^64CuDOTA was prepared by reacting 200 μCi of ^64CuCl2 with DOTA ligand (50 nmol) in 200 μL water at pH 6.5. The pH of the solution was maintained at 6.5 and the reaction was stirred at 50° C. for 30 min. The solution was then passed through a cation-exchange resin. The resin was washed with water and the total final volume was 600 μL.
Six phantoms were prepared in 4 mL glass culture tubes. Each phantom contained fibrinogen (fgn) at a final concentration of 2 mg/mL, 2.3 nmol of peptide or DOTA, a total volume of 2 mL, and a total activity of 150 nCi. In 3 of the phantoms, Fibrin gels (fbn) were prepared by adding CaCl2 and thrombin to a final concentration of 7 mM and 4 U/mL, respectively. Once the clots had formed, the mixture was centrifuged and the clots settled to the bottom. […]
The 6 tubes were placed in a holder with each tube equidistant from the isocenter and PET data was collected for 15 minutes. […] Each of the 32 PET detector modules consists of six 12×12 LSO crystal arrays read out by a 3×3 array of APDs (Hamamatsu 8664-55, Japan). […] The emission data recorded in list-mode format were sorted in the line of response space and compressed axially in the sinogram space for fast reconstruction. The normalization was calculated from a 64-hour scan of a plane-source rotated in the FOV. […]

[2] = target: T2, Human fibrin (Homo sapiens, UniProt P02671+P02675+P02679); experiment: Binding to human fibrin, dried fibrin microtiter plate, stoichiometric binding model; settings: dried human fibrin about 2.5 mg/mL, compound 0.1 to 50 μM, 2 h; read-out: Kd, first binding event
T2 construct: thrombin cleaves fibrinopeptides on fibrinogen resulting in an end-to-end polymerization to give the polymer fibrin; Human fibrinogen (American Diagnostica) was dialyzed; purchased American Diagnostica
T2 sequence (P02671 36-629 limits assumed): T1 sequence (P02671 36-629 limits assumed)
T2 sequence (P02675 45-491 limits assumed): T1 sequence (P02675 45-491 limits assumed)
T2 sequence (P02679 27-437 isoform P02679-2 limits assumed): T1 sequence (P02679 27-437 isoform P02679-2 limits assumed)
Procedure: Binding can also be assessed by a dried fibrin assay. Here, purified fibrinogen (2.5 mg/mL; 7 μM fibrin) is clotted with thrombin and dried to a thin film in wells of a microtiter plate. The resulting clots bind to the plate without loss of protein. The clots are rehydrated with buffer containing known concentrations of peptide. After incubation at 37° C. for 2 hr, the concentration of peptide in the supernatant ([peptide]free) is determined (e.g. by HPLC or if the peptide is labeled with a fluorophore by fluorescence, or if labeled by a radionuclide concentration is determined by radioactivity). The concentration of fibrin-bound peptide ([peptide]bound) is calculated by subtraction ([peptide]bound)=[peptide]total−[peptide]free). A dissociation constant (Kd) for fibrin binding can be determined by fitting a plot of [peptide]bound versus [peptide]free to either a stoichiometric (see e.g. Nair et al., Angew Chem Int Ed 2008 47:4918-21) or equivalent binding sites model (see e.g. Overoye-Chan et al. J Am Chem Soc 2008 130:6025-39). […]
Solutions of compound ranging from 0.1 to 50 μM were added to each of the wells of the dried fibrin microtiter plate, and the plate was shaken for 2 h. After incubation, solution was removed and the concentration of unbound compound was determined from its radioactivity or by ICP-MS. […]

[3] = test system: fibrin gel; experiment: MR phantom study at 1.5 T in fibrinogen solution and fibrin gel; settings: 25 μM Gd in 5 mg/mL fibrin gel, T1-weighted
Procedure: Fibrinogen (fgn) (50 mg, American Diagnostica) was dissolved in 1 mL of TBS (50 mM Tris, 150 mM sodium chloride, pH 7.4) and was dialyzed against TBS with 5 mM sodium citrate. The concentration of the resulting fibrinogen solution was 8.8 mg/mL based on the absorbance at 280 nm where 1 mg/mL fgn has an optical density of 1.512 for a 1 cm path length. Solutions were prepared by diluting stock solutions of gadolinium probe and fgn to final solutions of 25 μM Gd and 5 mg/mL fgn. Gadolinium concentrations were determined by ICP-MS. Fibrin gels were prepared by adding CaCl2 and thrombin to a final concentration of 7 mM and 4 U/mL, respectively. After briefly mixing the CaCl2 and thrombin, the solutions were allowed to gel/clot for 30 minutes. After fibrin (fbn) formation was complete, the clots were pushed to the wall of the tube with a pipet tip. A total of 6×0.5 mL phantoms were prepared in 1 mL centrifuge tubes: A) pure water; B) 5 mg/mL fibrinogen; C) [Gd(HP-DO3A)] at 25 μM in 5 mg/mL fgn; D) [Gd(HP-DO3A)] at 25 μM in 5 mg/mL fbn gel; E) GdDOTA-cyclic-FBP-p-XD-FITC (compound 17) at 25 μM in 5 mg/mL fgn; F) GdDOTA-cyclic-FBP-p-XD-FITC (compound 17) at 25 μM in 5 mg/mL fbn gel.
All 6 phantoms were simultaneously imaged at room temperature at 1.5 T with a clinical MRI. T1-weighted gradient echo images were acquired with repetition time TR=9.2 ms, echo time TE=1.9 ms, flip angle=25°.

[4] = target: T1, fibrin gel; experiment: Phantom study with fluorescence imaging in fibrinogen solution and fibrin gel; settings: 50 nM in 2 mg/mL fibrin gel
Procedure: A 10 mM solution of fluorescein was prepared in ethanol by adding 0.0113 g of fluorescein to 3 mL EtOH. This solution was diluted in water to prepare a 9.99 μM solution. Also, a dilute solution of GdDOTA-cyclic-FBP-p-XD-FITC was prepared with a final concentration of 8.55 μM. Four phantoms were prepared in 1 mL glass tubes. Each phantom contained fibrinogen at a final concentration of 2 mg/mL, 50 pmol of GdDOTA-cyclic-FBP-p-XD-FITC or fluorescein, at a total volume of 1 mL. In two of the phantoms, fibrin gels were prepared by adding CaCl2 and thrombin to a final concentration of 7 mM and 4 U/mL, respectively. Once the clots had formed, the mixture was centrifuged and the clots settled to the bottom. The 4 phantoms were labeled: A) GdDOTA-cyclic-FBP-p-XD-FITC in fgn; B) GdDOTA-cyclic-FBP-p-XD-FITC in fbn gel; C) fluorescein in fbn gel D) fluorescein in fgn. The phantoms were imaged with an IVIS Spectrum imager.

Kd [2] [nM] | Fluorescence intensity distribution between fibrin clot and liquid [4] | Compound | PET activity distribution between fibrin clot and liquid above the clot [1] | MR signal distribution between clotted fibrin and supernatant [3]
– | – | O=C([O-])CN1CCN(CC(=O)O)CCN(CC(=O)[O-])CCN(CC(=O)O)CC1.[64Cu+2] [^64CuDOTA] | distributed equally in the clot (bottom of tube B) and in the liquid above the clot | –
800 ± 300 | localizes in the fibrin clot | CC[C@H](C)[C@H](NC(=O)[C@H](Cc1ccc(O)cc1)NC(=O)[C@@H]1CSSC[C@H](NC(=O)[C@@H](CCC(=O)O)NC(=O)[C@H](Cc2ccc(O)cc2)NC(=O)CN2CCN(CC(=O)O)CCN(CC(=O)O)CCN(CC(=O)O)CC2)C(=O)N2C[C@H](O)C[C@H]2C(=O)N[C@@H](Cc2ccc(O)c(Cl)c2)C(=O)NCC(=O)N[C@@H](CC(C)C)C(=O)N1)C(=O)N[C@@H](CCC(N)=O)C(=O)NCc1ccc(CNC(=S)Nc2ccc3c(c2)C(=O)OC32c3ccc(O)cc3Oc3cc(O)ccc32)cc1 [Compound 17, GdDOTA-cyclic-FBP-p-XD-FITC] ({DOTA}-Y[dE]C[Hyp][Tyr(3-Cl)]GLCYIQ-X1; disulfide 3-8) | – | binding to the fibrin
900 ± 300 | – | CC[C@H](C)[C@H](NC(=O)[C@H](Cc1ccc(O)cc1)NC(=O)[C@@H]1CSSC[C@H](NC(=O)[C@@H](CCC(=O)O)NC(=O)[C@H](Cc2ccc(O)cc2)NC(=O)CCCCCNC(=S)Nc2ccc3c(c2)C(=O)OC32c3ccc(O)cc3Oc3cc(O)ccc32)C(=O)N2C[C@H](O)C[C@H]2C(=O)N[C@@H](Cc2ccc(O)c(Cl)c2)C(=O)NCC(=O)N[C@@H](CC(C)C)C(=O)N1)C(=O)N[C@@H](CCC(N)=O)C(=O)NCc1ccc(CNC(=O)CN2CCN(CC(=O)O)CCN(CC(=O)O)CCN(CC(=O)O)CC2)cc1 [Compound 11, FITC-hexyl-cyclic-FBP-p-XD-DOTA-Gd] ({FITC-Ahx}-Y[dE]C[Hyp][Tyr(3-Cl)]GLCYIQ-{DOTA(p-xylylenediamine)}; disulfide 3-8) | – | –
– | – | CC(O)CN1CCN(CC(=O)[O-])CCN(CC(=O)[O-])CCN(CC(=O)[O-])CC1.[Gd+3] (stereo not drawn) [GdHP-DO3A, reference compound] | – | distributed equally between the clotted fibrin and the supernatant
